Tests used:
[1] = test system: hepatic mRNA of adult male SHMs; experiment: SHM cDNA macroarray (30 genes): hepatic gene expression profiles of exposed fish; assay type: in vivo, sheepshead minnow (SHM)
[2] = test system: estrogen receptors alpha, beta, and gamma, and Vtg 1 mRNA; experiment: Real-time PCR of ER and Vtg 1 mRNA in LMB liver; assay type: in vivo, largemouth bass (LMB); conditions: male LMB liver
From the text: Experimental Design and Sample Collection: Adult male LMB were purchased from American Sports Fish Hatchery (Montgomery, Ala.) and maintained in fiberglass tanks as previously described (Larkin et al., Comp. Biochem. Physiol. B. Biochem. Mol. Biol. 133:543-557, 2002; Larkin et al., Marine Environ. Res. 54:395-399, 2002; and Larkin et al., Comparative Biochemistry and Physiology 133:543-557, 2002). Array technology as a tool to monitor exposure of fish to xenoestrogens. Marine Environ. Res., 2002; Bowman et al., Mol. Cell. Endocrinol. 196:67-77, 2002). Each fish was injected IP with either 50 mg/kg 4-NP (Fluka, St. Louis, Mo. # 74430), the combination of 50 mg/kg 4-NP and 1.0 mg/kg ICI 182,780 (Tocris Cookson), or vehicle, which consisted of ethanol and DMSO (Sigma, St. Louis, Mo. #5879). Each dose was dissolved in 1 ml of ethanol and then diluted to the appropriate concentration with DMSO. The fish were euthanized by submersion in a water bath containing 50-100 ppm […] 48 hours post injection and sacrificed by a sharp blow to the head followed by cervical transaction. The livers were excised and immediately flash frozen in liquid nitrogen. The frozen tissues were stored at −80° C. until RNA was isolated.
RNA Isolation: Isolation of total RNA from liver tissue was performed with the RNA Stat-60 reagent (Tel-test). Briefly, 30 mg-50 mg of tissue stored in RNA later was homogenized in 0.9 mls STAT 60, choloroform was added, and the mixture was centrifuged at 12,000 g for 15 minutes at 4° C. The extraction process was repeated and the pooled RNA was added to 500 μl isopropanol and allowed to precipitate at −20° C. for at least one hour. Following centrifugation at 12,000 g for 50 minutes, the pellet was washed with 70% ethanol, air dried and resuspended in an appropriate volume (50 μl-120 μl of RNA secure. The samples were treated with RNA secure (Ambion, Austin Tex. #7010) to inactivate contaminating RNases. All isolated RNA was treated with DNase solution (Ambion, Austin, Tex. #1906) following the manufacture's protocol. For all RNA samples, the quantity and quality of total RNA was assessed by spectrophotometric readings at 260 nm and by electrophoresis through a 1% formaldahyde agarose gel stained with ethidium bromide.
Real-Time PCR: Real time PCR was performed using reagents and a 5700 thermocycler purchased from Applied Biosystems (ABI, Foster City, Calif.). The nucleotide sequences of the primers for the ER subtypes and Vtg 1 are as follows: 5′, […] (SEQ ID NO:563) AND 5′[…] (SEQ ID NO:564). Probes and primers for the ER subtypes and Vtg 1 are described in Bowman et al., Ecotoxicology 8:399-416, 1999; and Bowman et al., Mol. Cell Endocrinol. 196:67-77, 2002. Each real time PCR reaction consisted of 0.01-0.2 μg of reverse transcribed total RNA from liver tissue, 1× universal Taqman master mix (ABI, Foster City, Calif.), and primers and probes in a 25 μl reaction. […] Statistical differences between the treatments were determined by one way analysis of variance with Dunnets post-hoc analysis.
Measurement of ER and Vtg 1 mRNA by real-time PCR: Real-time PCR is a sensitive assay that can be used to quantitate expression levels of genes. Using this technology, assays were designed to quantitate the expression of 4 genes, estrogen receptors alpha, beta, and gamma, and Vtg 1 in LMB following exposure to 4-NP and 4-NP/ICI 182,780. […]

[3] = test system: hepatic RNA of LMB; experiment: LMB gene array (132 genes): hepatic gene expression after IP injection; assay type: in vivo, largemouth bass (LMB); conditions: male LMB liver, two-fold cutoff vs control; for LMB50-1 (clone 50-1) expression / LMB67-1 signal peptidase, endopeptidase expression: 48 h after single IP 4-NP 50 mg/kg
[4] = test system: LMB genes (ER alpha, ER gamma, StAR); design: species or system largemouth bass (LMB); conditions: Table II, test not stated
[5] = test system: hepatic mRNA of adult male SHMs; experiment: SHM estrogen responsive macroarray (54 cDNA clones), E2 exposure; assay type: in vivo, sheepshead minnow (SHM); conditions: adult male SHM liver; aqueous 100 ng/L E2 in TEG, 5 days; vs TEG control
Method: Total hepatic mRNA was extracted from 5 adult male SHMs treated by aqueous exposure to 100 ng/L of E2 dissolved in triethylene glycol (TEG) for 5 days. Minipreps of 54 cDNA clones derived from DD analysis were PCR amplified using primers specific to the M13 sequence of the cloning vector (pGEMT-Easy, Promega, Madison,Wis.). After the PCR reactions the products were purified in spin-columns (Qiagen, Chatsworth, Calif.) and then concentrated in a speed-vac. The cDNA samples were denatured with NaOH, heated to 65° C. for 10 min, and then immediately quenched on ice. 20×SSC (3M NaCl, 0.3M sodium citrate, pH 7.0) that contained 0.01 mM bromophenol blue was then added to the samples to yield a final concentration of 0.3M NaOH, 6×SSC, and 100 ng/μL cDNA template. The samples were then robotically spotted (Biomek 2000, Beckman Coulter, Fullerton, Calif.) in duplicate onto neutral nylon membranes (Fisher Scientific, Pittsburgh, Pa.) using 100 nL pins. The membranes were UV cross-linked and then stored under vacuum at room temperature until hybridized. Various controls, which provided information about the cDNA labeling efficiency, blocking, and non-specific binding of the arrays, were also spotted onto the membranes. These controls included: 3 Arabidopsis thaliana cDNA clones, Cot-1 repetitive sequences, poly A sequence (SpotReport 3, Stratagene, La Jolla, Calif.), and a M13 sequence (vector but no cDNA insert). Labeling of RNA probes and hybridization of blots was performed as described in Example 1.
FIGS. 4A and 4B contain blots of control (TEG-treated) and E2-treated fish, respectively. FIG. 4C is a plot of the mean intensity values. Genes on the macroarray were designated as constitutive genes if their intensity values fell within the range of the highest (1.27) and lowest (0.83) value of the 17 cDNA clones that were used to normalize the data.

[6] = 48 h after single IP injection, 4-NP 50 mg/kg alone or with ICI 182,780 1.0 mg/kg, not significant
[7] = 48 h after single IP dose: E2 2.5 mg/kg or 4-NP 50 mg/kg
[8] = 48 h after single IP dose: E2 2.5 mg/kg or 4-NP 50 mg/kg, listed as NP
[9] = 48 h after single IP dose: E2 2.5 mg/kg, 4-NP 50 mg/kg or p,p′-DDE 100 mg/kg
[10] = 48 h after single IP dose: E2 2.5 mg/kg, 4-NP 50 mg/kg or p,p′-DDE 100 mg/kg, listed as NP
[11] = adult male SHM liver, aqueous E2 65.14 ng/L 5 d, EE2 109 ng/L 4 d, DES 100 ng/L 4 d, pNP 11.81 μg/L 5 d, MXC 5.59 μg/L 13 d, ES 590.3 ng/L, vs untreated control
[12] = adult male SHM liver, aqueous E2 65.14 ng/L 5 d, vs untreated control

Structure (SMILES): CCCCCCCCCc1ccc(O)cc1 [4-NP, para-nonylphenol]
- Regulation ([1]; Estrogen receptor alpha (clone ID not given)): up-reg E2; EE2,
- Regulation ([1]; clone SHM2-1: vitellogenin alpha (2)): up-reg E2; EE2,
- Regulation ([1]; clone SHM11: Transferrin): dn-reg E2; EE2,
- Regulation ([1]; clone SHM41: Ubiquitin-conjugating enzyme 9): up-reg NP
- Regulation ([1]; clone SHM72-3: Coagulation Factor XI): up-reg E2; EE2,
- Regulation ([1]; clone SHM76-2: Alphal-microglobulin/bikunin precursor (AMBP) protein): d-reg E2; EE2,
- Vtg 1 message levels increase over controls ([2]; 48 h after single IP 4-NP 50 mg/kg, p<0.05): approximately 40 fold
- ER α mRNA increase over controls ([2]; 48 h after single IP injection, 4-NP 50 mg/kg alone (p<0.05) or with ICI 182,780 1.0 mg/kg (p<0.08)): 80 fold
- ER β mRNA decrease vs controls [2, 6]: approximately 1.3 fold
- ER γ mRNA decrease vs controls [2, 6]: ~2.6 fold
- LMB50-1 (clone 50-1) expression [3]: down-regulated
- LMB67-1 signal peptidase, endopeptidase expression [3]: up-regulated
- LMB50-1 (clone 50-1) expression ([3]; listed as NP): Down reg NP;
- LMB67-1 signal peptidase, endopeptidase expression ([3]; listed as NP): Up-reg NP
- LMB5 vitellogenin-2A expression [3, 7]: Up reg E2;
- LMB92-1 (unidentified clone 92-1) expression [3, 7]: up-regulated
- LMB94-1 transferrin expression [3, 7]: down-regulated
- LMB112-1 cathepsin (Aspartic protease) expression [3, 7]: up-regulated
- LMB141 vitellogenin-3 expression [3, 7]: up reg E2; NP,
- four Vtg genes expression [3, 7]: up-regulated (only genes that exhibit a two-fold or greater change in expression were considered to be differentially regulated)
- LMB92-1 (unidentified clone 92-1) expression [3, 8]: up-reg E2;
- LMB94-1 transferrin expression [3, 8]: Down-reg.
- LMB83 vitellogenin-2 (Vtg 2) expression [3, 9]: up-reg E2;
- LMB87 vitellogenin-1 (Vtg 1) expression [3, 9]: up-reg E2;
- LMB97 choriogenin-3 expression [3, 9]: up-regulated
- LMB108-1 choriogenin-2 expression [3, 9]: up-regulated
- LMB97 choriogenin-3 expression [3, 10]: Up-reg E2;
- LMB108-1 choriogenin-2 expression [3, 10]: Up-reg E2; NP;
- LMB_ER-ALPHA ESTROGEN RECEPTOR ALPHA differentially expressed by [4]: up-reg E2;

Structure (SMILES): C[C@]12CC[C@@H]3c4ccc(O)cc4CC[C@H]3[C@@H]1CC[C@@H]2O [E2, estradiol]
- ER α expression [1, 11]: up-regulated (any cDNA clones in the macroarray experiments above a ˜1.66-fold induction were designated as up-regulated genes)
- Vtg α expression [1, 11]: up-regulated (any cDNA clones in the macroarray experiments above a ˜1.66-fold induction were designated as up-regulated genes)
- Vtg β expression [1, 12]: up-regulated (any cDNA clones in the macroarray experiments above a ˜1.66-fold induction were designated as up-regulated genes)
- alpha-1-microglobulin/bikunin precursor protein expression [1, 12]: down-regulated (any cDNA clones that had a value below ˜0.42 were designated as down-regulated)
- beta actin expression [1, 12]: down-regulated (any cDNA clones that had a value below ˜0.42 were designated as down-regulated)
- choriogenin 2 expression [1, 12]: up-regulated (any cDNA clones in the macroarray experiments above a ˜1.66-fold induction were designated as up-regulated genes)
- choriogenin 3 expression [1, 12]: up-regulated (any cDNA clones in the macroarray experiments above a ˜1.66-fold induction were designated as up-regulated genes)
- coagulation factor XI expression [1, 12]: up-regulated (any cDNA clones in the macroarray experiments above a ˜1.66-fold induction were designated as up-regulated genes)
- transferrin expression [1, 12]: down-regulated (any cDNA clones that had a value below ˜0.42 were designated as down-regulated)
- choriogenic protein (ZP2) expression [5]: up-regulated (intensity value above ˜1.27 was designated an E2 up-regulated gene)
- transferrin expression [5]: down-regulated (a value below ˜0.83 was designated an E2 down-regulated gene)
- vitellogenin α expression [5]: up-regulated (intensity value above ˜1.27 was designated an E2 up-regulated gene)
- vitellogenin β expression [5]: up-regulated (intensity value above ˜1.27 was designated an E2 up-regulated gene)
- clone 132-2 expression ([3]; 48 h after single IP E2 2.5 mg/kg): up-regulated (only genes that exhibit a two-fold or greater change in expression were considered to be differentially regulated)
- four Vtg genes expression [3, 7]: up-regulated (only genes that exhibit a two-fold or greater change in expression were considered to be differentially regulated)

Structure (SMILES): CC[C@H](CC[C@@H](C)[C@H]1CC[C@H]2[C@@H]3CC=C4C[C@@H](O)CC[C@]4(C)[C@H]3CC[C@]12C)C(C)C [b-sitosterol]
- LMB_STAR STAR PROTEIN differentially expressed by [4]: dn-reg b-

Source: patent US20040166509A1, “Detecting hormonally active compounds” (priority 2002, published 2004)
